The source of these data is patent US20240228489A1, “POSITIVE ALLOSTERIC MODULATORS OF THE MUSCARINIC ACETYLCHOLINE RECEPTOR M1” (Vanderbilt University, priority 2021, published 2024).

Assay [1] concerns the target T1, human mAChR M1 (Homo sapiens, UniProt P11229).
T1 sequence (P11229 1-460): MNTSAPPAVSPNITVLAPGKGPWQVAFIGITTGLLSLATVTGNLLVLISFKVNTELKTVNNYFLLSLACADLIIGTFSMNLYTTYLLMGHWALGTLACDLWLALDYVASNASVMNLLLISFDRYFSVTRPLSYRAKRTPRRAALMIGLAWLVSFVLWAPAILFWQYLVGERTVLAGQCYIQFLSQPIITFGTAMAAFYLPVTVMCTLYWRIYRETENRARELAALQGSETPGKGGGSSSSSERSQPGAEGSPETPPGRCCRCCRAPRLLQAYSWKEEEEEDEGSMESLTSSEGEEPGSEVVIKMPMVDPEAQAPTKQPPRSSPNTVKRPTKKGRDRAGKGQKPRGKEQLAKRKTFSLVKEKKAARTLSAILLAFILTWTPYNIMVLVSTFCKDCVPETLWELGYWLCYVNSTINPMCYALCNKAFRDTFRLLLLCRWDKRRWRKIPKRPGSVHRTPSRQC
Briefly: mAChR M1 cell-based functional assay (calcium mobilization), PAM mode: increase in the EC20 acetylcholine response. The gist of the method:
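PAM readout is the concentration-dependent rise in the EC20 acetylcholine calcium signal, fitted to a four-parameter logistic (EC50, Emax). Compounds were preincubated from 4 s before ACh at 144 s (EC20) and 230 s (EC80). hM1-expressing CHO-K1 cells loaded with Fluo-4, FDSS ratio read.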
On the technique in general: A change in cytosolic calcium serves as a functional read-out for many receptors and channels.

Assay [2] has as its target T1, human mAChR M1. Briefly: mAChR M1 cell-based functional assay (calcium mobilization), agonist mode: compound alone, Emax relative to acetylcholine maximum. Conditions: for pEC50 / Agonist Activity Human M1 EC50: human mAChR M1; for Emax: relative to the maximum for acetylcholine; call rule not given here. The gist of the method:
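Agonist activity is the concentration-dependent rise in intracellular calcium (Fluo-4, 1 Hz read) after compound addition, measured before any acetylcholine was added, in stable hM1 CHO-K1 cells. Curves were 11-point, 1:3 dilutions fitted by four-parameter logistic. Emax is given as a fraction of maximal acetylcholine response.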

SMILES strings stand for the structures. pEC50: −log10 of the molar value.

As to `[2H]C([2H])([2H])Oc1cnc2c(c1)C(=O)N(Cc1ccc(-c3ccc(OC)c4nn(C)cc34)cc1F)C2([2H])[2H]` [Compound 142, 6-(2-fluoro-4-(7-methoxy-2-methyl-2H-indazol-4-yl)benzyl)-3-(methoxy-d3)-6,7-dihydro-5H-pyrrolo[3,4-b]pyridin-5-one-7,7-d2], in assay [1], the pEC50 (usually the negative decadic logarithm of the EC50, by convention in mol/L) is 6.67 and the maximal effect (Emax) (as a rule, the size of the effect at its maximum, as opposed to the concentration needed) stood at 81%. In assay [2], the pEC50 is 5.22 and the maximal response (Emax) is 13%.
Turning to `[2H]C1([2H])c2ncccc2C(=O)N1Cc1ccc(-c2ccc(OC(C)COC)c3nn(C)cc23)cc1F` (stereo not shown) [Compound 143, 6-(2-fluoro-4-(7-((1-methoxypropan-2-yl)oxy)-2-methyl-2H-indazol-4-yl)benzyl)-6,7-dihydro-5H-pyrrolo[3,4-b]pyridin-5-one-7,7-d2], in assay [1], the pEC50 was 5.90 and the Emax came out at 74%. Moreover, in assay [2], the pEC50 was at most 5.00 and the Emax was 15%.
On the same counts, the results for `[2H]C1([2H])c2ncccc2C(=O)N1Cc1ccc(-c2ccc(O[C@H]3CCOC3)c3nn(C)cc23)cc1F` [Compound 144, (S)-6-(2-fluoro-4-(2-methyl-7-((tetrahydrofuran-3-yl)oxy)-2H-indazol-4-yl)benzyl)-6,7-dihydro-5H-pyrrolo[3,4-b]pyridin-5-one-7,7-d2] are 6.12, 75%, at most 5.00 and 18%.
The like results for `[2H]C1([2H])c2ncccc2C(=O)N1Cc1ccc(-c2ccc(OCC3CCO3)c3nn(C)cc23)cc1F` (stereo not shown) [Compound 145, 6-(2-fluoro-4-(2-methyl-7-(oxetan-2-ylmethoxy)-2H-indazol-4-yl)benzyl)-6,7-dihydro-5H-pyrrolo[3,4-b]pyridin-5-one-7,7-d2] were, in that order, 5.97, 73%, at most 5.00 and 16%.
On the same counts, the results for `[2H]C([2H])([2H])Oc1cnc2c(c1)C(=O)N(Cc1c(F)cc(-c3ccc(OC)c4nn(C)cc34)cc1F)C2([2H])[2H]` [Compound 146, 6-(2,6-difluoro-4-(7-methoxy-2-methyl-2H-indazol-4-yl)benzyl)-3-(methoxy-d3)-6,7-dihydro-5H-pyrrolo[3,4-b]pyridin-5-one-7,7-d2] are 6.75, 79%, 5.33 and 28%.
With `[2H]C1([2H])c2ncccc2C(=O)N1Cc1ccc(-c2ccc(OCC3CCCO3)c3nn(C)cc23)cc1F` (stereo not shown) [Compound 147, 6-(2-fluoro-4-(2-methyl-7-((tetrahydrofuran-2-yl)methoxy)-2H-indazol-4-yl)benzyl)-6,7-dihydro-5H-pyrrolo[3,4-b]pyridin-5-one-7,7-d2], the negative logarithm of the EC50 (pEC50) in assay [1] was 5.96; in assay [2], at most 5.00. Moreover, the Emax in assay [1] is 79%; in assay [2] it was 12%.
The like results for `[2H]C1([2H])c2ncccc2C(=O)N1Cc1c(F)cc(-c2ccc(O[C@H](C)COC)c3nn(C)cc23)cc1F` [Compound 148, (R)-6-(2,6-difluoro-4-(7-((1-methoxypropan-2-yl)oxy)-2-methyl-2H-indazol-4-yl)benzyl)-6,7-dihydro-5H-pyrrolo[3,4-b]pyridin-5-one-7,7-d2] were, in that order, 6.27, at most 5.00, 81% and 31%.
On to `[2H]C1([2H])c2ncccc2C(=O)N1Cc1c(F)cc(-c2ccc(OCCOC(C)C)c3nn(C)cc23)cc1F` [Compound 149, 6-(2,6-difluoro-4-(7-(2-isopropoxyethoxy)-2-methyl-2H-indazol-4-yl)benzyl)-6,7-dihydro-5H-pyrrolo[3,4-b]pyridin-5-one-7,7-d2], for which the pEC50 in assay [1] was 6.14; in assay [2] it was at most 5.00. Besides, the maximum response (Emax) in assay [1] is 77%; in assay [2], 26%.
The like results for `[2H]C1([2H])c2ncccc2C(=O)N1Cc1c(F)cc(-c2ccc(OCCOC3CC3)c3nn(C)cc23)cc1F` [Compound 150, 6-(4-(7-(2-cyclopropoxyethoxy)-2-methyl-2H-indazol-4-yl)-2,6-difluorobenzyl)-6,7-dihydro-5H-pyrrolo[3,4-b]pyridin-5-one-7,7-d2] were, in that order, 6.11, at most 5.00, 80% and 22%.
The like results for `[2H]C1([2H])c2ncccc2C(=O)N1Cc1ccc(-c2ccc(O[C@@H]3CCOC3)c3nn(C)cc23)cc1F` [Compound 151, (R)-6-(2-fluoro-4-(2-methyl-7-((tetrahydrofuran-3-yl)oxy)-2H-indazol-4-yl)benzyl)-6,7-dihydro-5H-pyrrolo[3,4-b]pyridin-5-one-7,7-d2] were, in that order, 6.16, at most 5.00, 76% and 22%.
On the same counts, the results for `[2H]C1([2H])c2ncccc2C(=O)N1Cc1ccc(-c2ccc(O[C@@H](C)COC)c3nn(C)cc23)cc1F` [Compound 152, (S)-6-(2-fluoro-4-(7-((1-methoxypropan-2-yl)oxy)-2-methyl-2H-indazol-4-yl)benzyl)-6,7-dihydro-5H-pyrrolo[3,4-b]pyridin-5-one-7,7-d2] are 6.19, at most 5.00, 80% and 27%.
Regarding `[2H]C1([2H])c2ncccc2C(=O)N1Cc1ccc(-c2ccc(OCCOC(C)C)c3nn(C)cc23)cc1F` [Compound 153, 6-(2-fluoro-4-(7-(2-isopropoxyethoxy)-2-methyl-2H-indazol-4-yl)benzyl)-6,7-dihydro-5H-pyrrolo[3,4-b]pyridin-5-one-7,7-d2], the figures for the pEC50 in assay [1] and in assay [2] were 5.87 and at most 5.00, respectively. The maximum response (Emax) in assay [1] was determined as 79%; in assay [2], 15%.
The like results for `[2H]C1([2H])c2ncccc2C(=O)N1Cc1ccc(-c2ccc(OCCOC3CC3)c3nn(C)cc23)cc1F` [Compound 154, 6-(4-(7-(2-cyclopropoxyethoxy)-2-methyl-2H-indazol-4-yl)-2-fluorobenzyl)-6,7-dihydro-5H-pyrrolo[3,4-b]pyridin-5-one-7,7-d2] were, in that order, 5.96, at most 5.00, 77% and 17%.
On the same counts, the results for `[2H]C1([2H])c2ncccc2C(=O)N1Cc1c(C)cc(-c2ccc(C)c3nn(C([2H])([2H])[2H])cc23)cc1F` [Compound 157, 6-(2-fluoro-6-methyl-4-(7-methyl-2-(methyl-d3)-2H-indazol-4-yl)benzyl)-6,7-dihydro-5H-pyrrolo[3,4-b]pyridin-5-one-7,7-d2] are 6.34, at most 5.00, 81% and 16%.
Turning to `[2H]C1([2H])c2ncccc2C(=O)N1Cc1c(C)cc(-c2ccc(F)c3nn(C([2H])([2H])[2H])cc23)cc1F` [Compound 158, 6-(2-fluoro-4-(7-fluoro-2-(methyl-d3)-2H-indazol-4-yl)-6-methylbenzyl)-6,7-dihydro-5H-pyrrolo[3,4-b]pyridin-5-one-7,7-d2], in assay [1], the pEC50 was 6.42 and the Emax came to 80%. Further, in assay [2], the “Agonist Activity Human M1 EC50” value is recorded as “Inactive” and the maximal effect (Emax) turned out to be 6%.
For `[2H]C1([2H])c2ncccc2C(=O)N1Cc1c(C)cc(-c2ccc(OC)c3nn(C([2H])([2H])[2H])cc23)cc1F` [Compound 159, 6-(2-fluoro-4-(7-methoxy-2-(methyl-d3)-2H-indazol-4-yl)-6-methylbenzyl)-6,7-dihydro-5H-pyrrolo[3,4-b]pyridin-5-one-7,7-d2], in assay [1], the negative-log EC50 (pEC50) is 6.79 and the maximum response (Emax) was found to be 83%. For the same compound, in assay [2], the negative-log EC50 (pEC50) was 5.20 and the Emax worked out at 31%.
On the same counts, the results for `[2H]C1([2H])c2ncccc2C(=O)N1Cc1c(C)cc(-c2ccc3nn(C([2H])([2H])[2H])cc3c2)cc1F` [Compound 160, 6-(2-fluoro-6-methyl-4-(2-(methyl-d3)-2H-indazol-5-yl)benzyl)-6,7-dihydro-5H-pyrrolo[3,4-b]pyridin-5-one-7,7-d2] are 6.40, 83%, at most 5.00 and 13%.
Turning to `[2H]C1([2H])c2ncccc2C(=O)N1Cc1c(F)cc(-c2cccc3nn(C([2H])([2H])[2H])cc23)cc1Cl` [Compound 161, 6-(2-chloro-6-fluoro-4-(2-(methyl-d3)-2H-indazol-4-yl)benzyl)-6,7-dihydro-5H-pyrrolo[3,4-b]pyridin-5-one-7,7-d2], in assay [1], the negative-log EC50 (pEC50) was 6.45 and the Emax turned out to be 81%. Moreover, in assay [2], the “Agonist Activity Human M1 EC50” value was “Inactive” and the Emax amounted to 6%.
As for `[2H]C1([2H])c2ncccc2C(=O)N1Cc1c(F)cc(-c2ccc(C)c3nn(C)cc23)cc1Cl` [Compound 162, 6-(2-chloro-4-(2,7-dimethyl-2H-indazol-4-yl)-6-fluorobenzyl)-6,7-dihydro-5H-pyrrolo[3,4-b]pyridin-5-one-7,7-d2], in assay [1], the pEC50 was 6.36 and the maximum response (Emax) was 81%. In assay [2], the “Agonist Activity Human M1 EC50” value is on record as “Inactive” and the maximal response (Emax) came to 2%.
